Values joined by “and” are separate entries in the source; they are usually repeats but may differ in a detail not shown here. Equal entries are not always repeated. Where two headings read alike, the source gives them in different places.
Assays:
récepteurs β1-cardiaques = biological target: T1, récepteurs β1-cardiaques (Cavia porcellus, UniProt H0W3H1); test: Antagonism of the effects of isoprenaline on the isolated guinea-pig atrium (method of Giudicelli, Schmitt and Boissier); set-up: species or system cobaye; settings: for Effet inotrope + de l'isoprénaline Concentration active Après produit: isoprenaline concentration giving a 10 mm increase of the trace amplitude; for Effet chronotrope + de l'isoprénaline Concentration active Après produit: isoprenaline concentration giving an increase of 30 beats per min
T1 construct: sur l'oreillette isolée de cobaye; from tissue; host or cells: isolated guinea-pig atrium
T1 sequence (H0W3H1 1-470): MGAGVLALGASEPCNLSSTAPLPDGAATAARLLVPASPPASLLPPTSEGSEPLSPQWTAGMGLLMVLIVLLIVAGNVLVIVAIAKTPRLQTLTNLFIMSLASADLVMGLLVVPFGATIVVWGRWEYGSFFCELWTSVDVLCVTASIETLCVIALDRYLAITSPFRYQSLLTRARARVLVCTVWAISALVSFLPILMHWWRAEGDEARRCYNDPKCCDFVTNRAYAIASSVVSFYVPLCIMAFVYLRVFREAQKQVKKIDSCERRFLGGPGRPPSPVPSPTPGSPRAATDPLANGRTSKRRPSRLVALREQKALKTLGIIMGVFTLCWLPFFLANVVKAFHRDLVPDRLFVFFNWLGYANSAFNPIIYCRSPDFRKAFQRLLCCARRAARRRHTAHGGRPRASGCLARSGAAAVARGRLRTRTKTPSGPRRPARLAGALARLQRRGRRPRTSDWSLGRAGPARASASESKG
From the text: L'activité 8-lytique a été recherchée au niveau des récepteurs β1-cardiaques en déterminant l'antagonisme des effets de l'isoprénaline sur l'oreillette isolée de cobaye, selon la méthode de Giudicelli, Schmitt et Boissier (J. Pharmacol. Exper. Thérapeut., 1969, 168, 116). […]
Afin de ne pas surcharger inutilement les tableaux suivants, seuls les résultats correspondant au composé n° 2 sont indiqués.

[1] = biological target: T2, récepteurs S2-bronchiques (Cavia porcellus, UniProt Q8K4Z4); test: Inhibition of the protection given by isoprenaline against serotonin bronchospasm (Konzett and Roessler, modified by Halpern); assay type: in vivo, cobaye; settings: guinea pig, i.v. 250 µg/kg; for inhibition at 0.25 mg/kg: iv, number in parentheses
T2 construct: a été étudiée chez le cobaye, à raison de cinq animaux par essai; from tissue; host or cells: whole guinea pig (bronchi, in vivo)
T2 sequence (Q8K4Z4 whole entry): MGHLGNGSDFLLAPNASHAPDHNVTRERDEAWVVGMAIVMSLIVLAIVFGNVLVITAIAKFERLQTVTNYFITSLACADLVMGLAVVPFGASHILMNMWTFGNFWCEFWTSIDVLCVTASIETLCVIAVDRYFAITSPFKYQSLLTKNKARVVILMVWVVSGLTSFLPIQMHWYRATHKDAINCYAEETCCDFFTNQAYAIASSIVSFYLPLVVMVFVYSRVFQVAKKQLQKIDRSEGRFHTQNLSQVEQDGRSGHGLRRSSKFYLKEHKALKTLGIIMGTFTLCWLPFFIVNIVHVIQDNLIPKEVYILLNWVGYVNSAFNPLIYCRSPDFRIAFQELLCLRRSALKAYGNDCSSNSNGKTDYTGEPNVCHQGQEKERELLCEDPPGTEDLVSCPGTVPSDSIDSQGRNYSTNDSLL
Protocol: L'action β2-adrénolytique au niveau bronchique a été étudiée chez le cobaye, à raison de cinq animaux par essai, en recherchant l'inhibition de la protection exercée par l'isoprénaline vis-à-vis du bronchospasme à la sérotonine, selon la méthode de Konzett et Roessler (Arch. Exper. Pathol. Pharmakol., 1940, 195, 71) modifiée par Halpern.
Les composés sont administrés par voie i.v. à la dose de 250 µg/kg.

[2] = dose of product 1.10^-10 mole/cm^3
[3] = dose of product 1.10^-10 mole/cm^3, ratio of active concentrations after and before addition of product
[4] = dose of product 5.10^-10 mole/cm^3

| Compound | activité β1-stimulante (récepteurs β1-cardiaques; at low concentrations, compared with propranolol, summary of Table II) | Effet inotrope + de l'isoprénaline Concentration active Après produit (récepteurs β1-cardiaques; [2]) | Effet chronotrope + de l'isoprénaline Concentration active Après produit (récepteurs β1-cardiaques; [2]) | Effet chronotrope + de l'isoprénaline Index d'activité (récepteurs β1-cardiaques; [3]) | Effet inotrope + de l'isoprénaline Index d'activité (récepteurs β1-cardiaques; [3]) | Effet chronotrope + de l'isoprénaline Concentration active Après produit (récepteurs β1-cardiaques; [4]) | antagonisme des effets de l'isoprénaline (effet inotrope + et effet chronotrope +) (récepteurs β1-cardiaques; isolated atrium, single concentration 1.10^-7 g/cm^3, five preparations per product, given as maleate) | Moyenne de l'amplitude Après administration, au bout de 1 min ([1]; 1 min after administration, five animals) | Moyenne de l'amplitude Après administration, au bout de 8 min ([1]; 8 min after administration, five animals) | Moyenne de l'amplitude Après administration, au bout de 16 min ([1]; 16 min after administration, five animals) | Moyenne de l'amplitude Après administration, au bout de 30 min ([1]; 30 min after administration, five animals) | Moyenne de l'amplitude Après administration, au bout de 60 min ([1]; 60 min after administration, five animals) | blocage des récepteurs S2-bronchiques ([1]; compared with propranolol, summary of Table III) | inhibition at 0.25 mg/kg ([1]; 1 min after administration, read-out: pourcentages d'inhibition de l'isoprénaline, 1 min (converted)) | inhibition at 0.25 mg/kg ([1]; 8 min after administration, read-out: pourcentages d'inhibition de l'isoprénaline, 8 min (converted)) | inhibition at 0.25 mg/kg ([1]; 16 min after administration, read-out: pourcentages d'inhibition de l'isoprénaline, 16 min (converted)) | Effet inotrope + de l'isoprénaline Concentration active Après produit (récepteurs β1-cardiaques; [4]) |
| --- | --- | --- | --- | --- | --- | --- | --- | --- | --- | --- | --- | --- | --- | --- | --- | --- | --- |
| CC(C)(C)NCC(O)COc1c(C#N)sc2ccccc12 (stereo not drawn) [compound 2] | proche de celle du propranolol | 7,6.10^-8 | 3,8.10^-8 | 7 | 6,5 | 1,5.10^-7 and 1,8.10^-7 | suffisamment efficace | 20,4 ± 1,4 | 3,8 ± 2,4 | 0,6 ± 0,6 | 0 | 0 | très fugace | 82% | 15% | 2% |  |
| CC(C)NCC(O)COc1cccc2ccccc12 (stereo not drawn) [propranolol, isopropylamino-1 (naphtyl-1 oxy)-3 propanol-2, reference compound] |  |  |  |  |  | 1,8.10^-7 |  |  |  |  |  |  |  |  |  |  | 5,8.10^-8 |
